According to publication PMC7857503, “Multivalent lipid targeting by the calcium-independent C2A domain of synaptotagmin-like protein 4/granuphilin” (The Journal of Biological Chemistry, 2020):

Biological target: T1, Slp-4 C2A domain (synaptotagmin-like protein 4/granuphilin) (Homo sapiens, UniProt Q96C24)
T1 construct: gene SYTL4; C2A domain G352-S494; N-terminal GST cleaved by thrombin; E. coli BL21(DE3); cation-exchange purified, unmodified main peak
T1 sequence (Q96C24 352-494): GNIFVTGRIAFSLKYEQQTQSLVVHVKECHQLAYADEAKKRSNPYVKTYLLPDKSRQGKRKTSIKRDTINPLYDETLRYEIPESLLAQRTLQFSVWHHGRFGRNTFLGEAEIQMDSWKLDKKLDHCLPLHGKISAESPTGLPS
Assay: Trp-to-dansyl FRET, competitive displacement of protein from dansyl-PE liposomes
Format: binding
Details: read-out: IC50 for IP6 (μM) ^a

IC50: 620 ± 80 µM
Compound: O=P(O)(O)O[C@H]1[C@H](OP(=O)(O)O)[C@@H](OP(=O)(O)O)[C@H](OP(=O)(O)O)[C@@H](OP(=O)(O)O)[C@H]1OP(=O)(O)O [IP6, D-myo-inositol-(1,2,3,4,5,6)-hexakisphosphate]
